Entries after “also recorded” stand apart in the source; their conditions may differ.

Here are results for four molecules from patent publication US20140193846A1, “NOVEL APOC-I ISOFORMS AND THEIR USE AS BIOMARKERS AND RISK FACTORS OF ATHEROSCLEROTIC DISEASE” (SCOTT & WHITE HEALTHCARE, priority 2011, published 2014).

The test system of assay [1] is ASMC apoptosis mediated by HDL2 from subject 10. Briefly: Effect of N-SMase inhibitor on HDL2-induced ASMC apoptosis. The assay is classed as cell-based, human. Conditions: GW 4869 20 umol/L; for effect of inhibitor on HDL2-induced ASMC apoptosis (words): HDL2 from subject 10. As to the method: The same procedure described in detail by Kolmakova et al., Arterioscler. Thromb. Vasc. Biol., 24:264-269 (2004) was used. In brief, 10^3 human ASMC (Cambrex, Walkersville, Md.), were grown on sterilized glass cover slips in 6-well trays and treated with 2.5 μL of the various lipoprotein fractions per ml of medium. After 24 hour incubation, the medium was removed and cells were fixed and stained. The average ApoA-I concentration in the HDL2 and HDL3 fractions was ˜25 mg/dL and ˜40 mg/dL, respectively.
The effect of GW 4869 (20 umol/L), a noncompetitive inhibitor of N-SMase (Luberto C. et al., J. Biol Chem., 277(43):41128-41139 (2002)), on ASMC apoptosis mediated by HDL2 from subject 10 was studied and the results are shown in FIG. 9. […] The effect of HDL2 on apoptosis was also dose-dependent: when only 1 μl of HDL2 was used a 20.1% apoptosis of ASMC resulted as compared to ˜50% apoptosis when 2.5 μl HDL2 from the same subject was used.

For assay [2], the system named is ICAM-1 expression by HAECs. Briefly: ICAM-1 expression by HAECs exposed to lipoprotein fractions. It is filed as cell-based, human. Particulars: HAECs pre-treated with inhibitor.
Assay [3] deals with Human aortic endothelial cells (HAECs). Kind of assay: Nitric oxide (NO) release from HAECs incubated with HDL sub-fractions (DAF fluorescence). It is filed as cell-based. Conditions: HAECs pretreated, then incubated with apoptotic HDL2. As to the method: Human aortic endothelial cells (HAECs) were incubated with HDL sub-fractions for 12 h from a subject with apoptotic HDL2 (and CAD) and a subject with non-apoptotic HDL2 (without CAD). The cells were then stained with 4′5′-diamino flourescein 2-diacetate (DAF) (Invitrogen/Molecular Probes, CA), a fluorescent probe that allows for real-time detection of NO. Following incubation cells were washed with phosphate buffered saline (PBS) to remove unbound dye and mounted on a drop of 10% glycerol in PBS and photographed by fluorescence microscopy.

Assay [4] deals with T1, lecithin-cholesterol acyl transferase (LCAT) (Homo sapiens, UniProt P04180).
T1 sequence (P04180 25-440): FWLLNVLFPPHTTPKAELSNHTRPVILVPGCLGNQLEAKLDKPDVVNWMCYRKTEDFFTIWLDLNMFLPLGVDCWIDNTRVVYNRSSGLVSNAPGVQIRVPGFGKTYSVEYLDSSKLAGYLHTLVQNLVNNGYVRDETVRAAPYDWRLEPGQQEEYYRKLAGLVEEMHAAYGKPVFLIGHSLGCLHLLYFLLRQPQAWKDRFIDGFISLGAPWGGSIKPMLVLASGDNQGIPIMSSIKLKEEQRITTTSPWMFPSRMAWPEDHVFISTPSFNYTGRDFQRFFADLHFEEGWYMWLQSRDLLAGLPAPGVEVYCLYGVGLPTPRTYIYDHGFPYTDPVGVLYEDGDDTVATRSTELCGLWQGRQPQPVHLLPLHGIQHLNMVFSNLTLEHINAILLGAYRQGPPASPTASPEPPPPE
Particulars: % of the activity demonstrated by apoA-I; cited from earlier work.

For the molecule `O=C(/C=C/c1ccc(/C=C/C(=O)Nc2ccc(C3=NCCN3)cc2)cc1)Nc1ccc(C2=NCCN2)cc1` [GW4869], the “number of apoptotic cells with HDL2 plus inhibitor” value in assay [1] (1 μL HDL2 from subject 10, 20.1% without inhibitor) was found to be 1.19%. Further, the “effect of inhibitor on HDL2-induced ASMC apoptosis (words)” value in assay [1] was “inhibits apoptosis”; in assay [1] (listed as GW 4869), “almost completely prevented HDL2-induced apoptosis”.

For `CNC(=N)NCCC[C@H](N)C(=O)O` [NMLA, NG monomethyl-L-arginine], the “effect of pre-treating HAECs on HDL2-increased ICAM-1 expression” value in assay [2] is “attenuated”.

For the molecule `S=C(S)N1CCCC1` [PDTC, Pyrrolidine dithiocarbamate], the “effect of pre-treating HAECs on HDL2-increased ICAM-1 expression” value in assay [2] is “attenuated”. For the same molecule, the “effect of pretreatment on HDL2-induced NO release from HAECs” value in assay [3] is “markedly reduced NO release; also recorded: production of NO was blocked”.

For the molecule “ApoC-I: mature 57 amino acid apolipoprotein C-I protein set forth in SEQ ID NO:6 (TPDVSSALDKLKEFGNTLEDKARELIBRINKQSELSAKMREWFSETFQKVKELKIDS; listed as Homo sapiens)”, the “LCAT stimulation, activity relative to apoA-I” value in assay [4] was “approximately 78%”.
